The record followed here is patent publication US20080207505A1, “Bna Conjugates and Methods of Use” (priority 2005, published 2008).

The series deals with normal dogs. Description: Oral administration of hBNP-021 versus native hBNP in normal dogs (randomized crossover). The settings on record: dog, oral 350 ug/kg.

Each structure is given as a SMILES string.

Description: Immediately prior to oral dosing, the powder (either hBNP or hBNP conjugate) was dissolved in a buffered formulation to a concentration of 1.25 mg/mL.
MAP and blood samplings were repeated at 10, 30, 60, 120, 180, and 240 minutes after oral administration. Blood samples were collected in pre-chilled EDTA tubes and immediately placed on ice and centrifuged at −4° C. Plasma was stored at −80° C. until analysis. After extraction, plasma cANP, cBNP, hBNP and cGMP were assessed by radioimmunoassay as previously described (Saito, Y. et al. 1989; Kambayashi, Y. et al, 1990).
Results are expressed as mean ±SEM. Data were assessed by 1-way ANOVA for comparisons within groups followed by post hoc Dunnett's test. Two-way ANOVA was used for comparisons between groups, followed by Bonferroni posttest. Student's paired t test was performed for single comparisons between groups (Graph-Pad Prism software 4.0). Statistical significance was accepted at a value of P<0.05.

As to `CC[C@H](C)[C@@H]1NC(=O)[C@H](CCCNC(=N)N)NC(=O)[C@H](CC(=O)O)NC(=O)[C@H](CCSC)NC(=O)[C@H](CCCCN)NC(=O)[C@H](CCCNC(=N)N)NC(=O)CNC(=O)[C@H](Cc2ccccc2)NC(=O)[C@@H](NC(=O)CNC(=O)[C@H](CO)NC(=O)CNC(=O)[C@H](CCC(N)=O)NC(=O)[C@@H](NC(=O)[C@H](CCSC)NC(=O)[C@H](CCCCN)NC(=O)[C@@H]2CCCN2C(=O)[C@@H](N)CO)C(C)C)CSSC[C@@H](C(=O)N[C@@H](CCCCN)C(=O)N[C@H](C(=O)N[C@@H](CC(C)C)C(=O)N[C@@H](CCCN=C(N)N)C(=O)N[C@@H](CCCN=C(N)N)C(=O)N[C@@H](Cc2cnc[nH]2)C(=O)O)C(C)C)NC(=O)CNC(=O)[C@H](CC(C)C)NC(=O)CNC(=O)[C@H](CO)NC(=O)[C@H](CO)NC(=O)[C@H](CO)NC(=O)[C@H](CO)NC1=O` [Native hBNP, reference compound], the “plasma hBNP after oral administration” value is given as “detected in lower levels”.
